Test results from US20220249441A1, “Homodimeric Tobramycin Adjuvant Repurposes Novobiocin as an Effective Antibacterial Agent Against Gram-Negative Bacteria” (priority 2019, published 2022).

Experiments:
P. aeruginosa = assay: Checkerboard assay (antibiotic + adjuvant combination MIC); type: cell-based, Pseudomonas aeruginosa; details: compound at 8 μM
Description: (§1) Antimicrobial Susceptibility Assay. The in vitro antimicrobial activity of all compounds/antibiotics against a panel of bacteria was evaluated by microbroth dilution method in accordance with the Clinical and Laboratory Standards Institute (CLSI) guidelines (using ATCC strains as quality control strains) (54). Overnight grown bacterial cultures were diluted in saline to achieve a 0.5 McFarland turbidity, followed by 1:50 dilution in Mueller-Hinton broth (MHB) for inoculation to a final concentration of approximately 5×10^5 CFU/mL. […] The lowest concentration that prevented the visible growth of bacteria was defined as the MIC for each antimicrobial agent. The broth with or without bacterial cells was used as positive or negative control, respectively.
Checkerboard Assay. Combination studies with different antibiotics were performed in 96-well plates as previously described (19). Briefly, the antibiotic of interest was serially diluted in MHB along the abscissa while the adjuvant (tobramycin homodimer) was serially diluted in MHB along the ordinate. This creates a 10×7 matrices wherein each well consists of a combination of different antibiotic and adjuvant concentrations. Overnight grown bacterial cultures were diluted in saline to achieve a 0.5 McFarland turbidity, followed by 1:50 dilution in Mueller-Hinton broth (MHB) for inoculation to a final concentration of approximately 5×10^5 CFU/mL. […] MIC was recorded as wells with the lowest concentration of drugs with no bacterial growth. The fractional inhibitory concentration (FIC) for each antibiotic was calculated by dividing the MIC of the antibiotic in the presence of adjuvant by the MIC of the antibiotic alone. Similarly, the FIC of adjuvant was calculated by dividing the MIC of the adjuvant in the presence of antibiotic by the MIC of the adjuvant alone. FIC index is the sum of both FICs. FIC indices of ≤0.5 were deemed synergistic; >0.5-4, no interaction; and >4, antagonistic.

[1] = system: P. aeruginosa PAO1 and efflux deficient mutants, MDR/XDR isolates; assay: microbe, parasite or virus in culture; type: cell-based, Pseudomonas aeruginosa
Description: Antimicrobial Susceptibility Assay. The in vitro antimicrobial activity of all compounds/antibiotics against a panel of bacteria was evaluated by microbroth dilution method in accordance with the Clinical and Laboratory Standards Institute (CLSI) guidelines (using ATCC strains as quality control strains) (54). […] The broth with or without bacterial cells was used as positive or negative control, respectively.

[2] = system: panel of Gram-positive and Gram-negative bacteria; assay: Antimicrobial susceptibility assay against a panel of bacteria; type: cell-based; details: some isolates
Description: as §1

**Q.** Which MIC of Aztreonam + compound (P. aeruginosa; P. aeruginosa PAO1) does the source give for `Cl.Cl.Cl.Cl.Cl.Cl.NC[C@H]1O[C@H](O[C@H]2[C@H](OCCCCCCCCCCCCN3CCN(c4cc5c(cc4F)c(=O)c(C(=O)O)cn5C4CC4)CC3)[C@@H](O[C@H]3O[C@H](CO)[C@@H](O)[C@H](N)[C@H]3O)[C@H](N)C[C@@H]2N)[C@H](N)C[C@@H]1O` [Compound 21, Tobramycin-ciprofloxacin] here?
**A.** 0.25 µg/mL

**Q.** And the MIC of Ceftazidime + compound (P. aeruginosa; P. aeruginosa PAO1)?
**A.** 0.25 µg/mL

**Q.** What about the MIC of Imipenem + compound (P. aeruginosa; P. aeruginosa PAO1) of the same compound?
**A.** 0.5 µg/mL

**Q.** And the MIC of Piperacillin + compound (P. aeruginosa; P. aeruginosa PAO1)?
**A.** 2 µg/mL

**Q.** What about the MIC of ATM in the presence of compound (P. aeruginosa; PA 259-96918) of the same compound?
**A.** 8 µg/mL

**Q.** And the MIC of CAZ in the presence of compound (P. aeruginosa; PA 259-96918)?
**A.** 64 µg/mL

**Q.** What about the MIC of IPM in the presence of compound (P. aeruginosa; PA 259-96918) of the same compound?
**A.** 16 µg/mL

**Q.** What about the MIC of ATM in the presence of compound (P. aeruginosa; PA 260-97103) of the same compound?
**A.** 4 µg/mL

**Q.** What about the MIC of CAZ in the presence of compound (P. aeruginosa; PA 260-97103) of the same compound?
**A.** 4 µg/mL

**Q.** What about the MIC of IPM in the presence of compound (P. aeruginosa; PA 260-97103) of the same compound?
**A.** 2 µg/mL

**Q.** What about the MIC of ATM in the presence of compound (P. aeruginosa; PA 262-101856) of the same compound?
**A.** 4 µg/mL

**Q.** What about the MIC of CAZ in the presence of compound (P. aeruginosa; PA 262-101856) of the same compound?
**A.** 4 µg/mL

**Q.** What about the MIC of IPM in the presence of compound (P. aeruginosa; PA 262-101856) of the same compound?
**A.** 4 µg/mL

**Q.** And the MIC of ATM in the presence of compound (P. aeruginosa; PA 264-104354)?
**A.** 8 µg/mL

**Q.** What about the MIC of CAZ in the presence of compound (P. aeruginosa; PA 264-104354) of the same compound?
**A.** 16 µg/mL

**Q.** And the MIC of IPM in the presence of compound (P. aeruginosa; PA 264-104354)?
**A.** 4 µg/mL

**Q.** What about the MIC of ATM in the presence of compound (P. aeruginosa; PA 86052) of the same compound?
**A.** 8 µg/mL

**Q.** And the MIC of CAZ in the presence of compound (P. aeruginosa; PA 86052)?
**A.** 32 µg/mL

**Q.** And the MIC of IPM in the presence of compound (P. aeruginosa; PA 86052)?
**A.** 8 µg/mL

**Q.** What about the MIC of ATM in the presence of compound (P. aeruginosa; PA 88949) of the same compound?
**A.** 8 µg/mL

**Q.** What about the MIC of CAZ in the presence of compound (P. aeruginosa; PA 88949) of the same compound?
**A.** 32 µg/mL

**Q.** What about the MIC of IPM in the presence of compound (P. aeruginosa; PA 88949) of the same compound?
**A.** 8 µg/mL

**Q.** And the MIC of ATM in the presence of compound (P. aeruginosa; PA 91433)?
**A.** 4 µg/mL

**Q.** And the MIC of CAZ in the presence of compound (P. aeruginosa; PA 91433)?
**A.** 2 µg/mL

**Q.** And the MIC of IPM in the presence of compound (P. aeruginosa; PA 91433)?
**A.** 2 µg/mL

**Q.** What about the MIC of ATM in the presence of compound (P. aeruginosa; PA 100036) of the same compound?
**A.** 4 µg/mL

**Q.** And the MIC of CAZ in the presence of compound (P. aeruginosa; PA 100036)?
**A.** 2 µg/mL

**Q.** What about the MIC of IPM in the presence of compound (P. aeruginosa; PA 100036) of the same compound?
**A.** 2 µg/mL

**Q.** What about the MIC of ATM in the presence of compound (P. aeruginosa; PA 101243) of the same compound?
**A.** 4 µg/mL

**Q.** What about the MIC of CAZ in the presence of compound (P. aeruginosa; PA 101243) of the same compound?
**A.** 8 µg/mL

**Q.** What about the MIC of IPM in the presence of compound (P. aeruginosa; PA 101243) of the same compound?
**A.** 2 µg/mL

**Q.** And the MIC of ATM in the presence of compound (P. aeruginosa; PA 101885)?
**A.** 1 µg/mL

**Q.** And the MIC of CAZ in the presence of compound (P. aeruginosa; PA 101885)?
**A.** 1 µg/mL

**Q.** What about the MIC of IPM in the presence of compound (P. aeruginosa; PA 101885) of the same compound?
**A.** 2 µg/mL

**Q.** And the MIC of ATM in the presence of compound (P. aeruginosa; PA 107092)?
**A.** 8 µg/mL

**Q.** And the MIC of CAZ in the presence of compound (P. aeruginosa; PA 107092)?
**A.** 16 µg/mL

**Q.** What about the MIC of IPM in the presence of compound (P. aeruginosa; PA 107092) of the same compound?
**A.** 8 µg/mL

**Q.** And the MIC of ATM in the presence of compound (P. aeruginosa; PA 108590)?
**A.** 0.5 µg/mL

**Q.** What about the MIC of CAZ in the presence of compound (P. aeruginosa; PA 108590) of the same compound?
**A.** 0.5 µg/mL

**Q.** What about the MIC of IPM in the presence of compound (P. aeruginosa; PA 108590) of the same compound?
**A.** 0.25 µg/mL

**Q.** And the MIC of ATM in the presence of compound (P. aeruginosa; PA 109084)?
**A.** 16 µg/mL

**Q.** What about the MIC of CAZ in the presence of compound (P. aeruginosa; PA 109084) of the same compound?
**A.** 16 µg/mL

**Q.** What about the MIC of IPM in the presence of compound (P. aeruginosa; PA 109084) of the same compound?
**A.** 8 µg/mL

**Q.** What about the MIC of ATM in the presence of compound (P. aeruginosa; PA 114228) of the same compound?
**A.** 2 µg/mL

**Q.** What about the MIC of CAZ in the presence of compound (P. aeruginosa; PA 114228) of the same compound?
**A.** 0.5 µg/mL

**Q.** And the MIC of IPM in the presence of compound (P. aeruginosa; PA 114228)?
**A.** 2 µg/mL

**Q.** And the MIC of ATM in the presence of compound (P. aeruginosa; PA O200 (efflux-deficient))?
**A.** 0.03 µg/mL

**Q.** And the MIC of CAZ in the presence of compound (P. aeruginosa; PA O200 (efflux-deficient))?
**A.** 0.06 µg/mL

**Q.** And the MIC of IPM in the presence of compound (P. aeruginosa; PA O200 (efflux-deficient))?
**A.** 1 µg/mL

**Q.** And the MIC of ATM in the presence of compound (P. aeruginosa; PA O750 (efflux-deficient))?
**A.** 0.06 µg/mL

**Q.** What about the MIC of CAZ in the presence of compound (P. aeruginosa; PA O750 (efflux-deficient)) of the same compound?
**A.** 0.03 µg/mL

**Q.** And the MIC of IPM in the presence of compound (P. aeruginosa; PA O750 (efflux-deficient))?
**A.** 0.5 µg/mL

**Q.** And the MIC of ATM in the presence of compound (P. aeruginosa; PAO1)?
**A.** 0.25 µg/mL

**Q.** What about the MIC of CAZ in the presence of compound (P. aeruginosa; PAO1) of the same compound?
**A.** 0.25 µg/mL

**Q.** What about the MIC of IPM in the presence of compound (P. aeruginosa; PAO1) of the same compound?
**A.** 0.5 µg/mL

**Q.** What about the “resistant isolates in which CLSI breakpoint was attained for aztreonam” value (P. aeruginosa) of the same compound?
**A.** twelve out of thirteen

**Q.** And the “resistant isolates in which CLSI breakpoint was attained for ceftazidime” value (P. aeruginosa)?
**A.** four out of eleven

**Q.** What about the “resistant isolates in which CLSI breakpoint was attained for imipenem” value (P. aeruginosa) of the same compound?
**A.** ten out of seventeen

**Q.** What about the MIC ([1]; PA0750 (efflux-deficient)) of the same compound?
**A.** 2 µg/mL

**Q.** What about the MIC ([1]; PAO1 (wild-type)) of the same compound?
**A.** 32 µg/mL

**Q.** And the MIC ([1]; PAO200 (first column so headed))?
**A.** 4 µg/mL

**Q.** What about the MIC ([1]; PAO200 (second column so headed)) of the same compound?
**A.** 2 µg/mL

**Q.** And the intrinsic antimicrobial activity [2]?
**A.** some modest residual activity
